Reference: US11655201B2, “Method for preparing 2-tert-butyl-4-methoxyphenol and new crystal form thereof” (BIOMEDICAL ANALYSIS CENTER, ACADEMY OF MILITARY MEDICAL …, priority 2017, dated 2023)
“And” between values parts separate entries of the source, which are not always exact repeats. Equal entries are not always repeated.

Key:
[1] = Pharmacokinetic evaluation of 2-BHA of form A in rats by intragastric administration; type: in vivo, SD rats; conditions: 100 mg/kg intragastric, individual rats 1♂-6♀;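 also: plasma concentration in ng/mL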
Description: SD rats, half male and half female, fasted overnight, 6 rats/group, were given 2-tert-butyl-4-methoxyphenol suspended in Tween 80 (2-BHA of form A prepared by Example 4) by intragastric administration, the dose being 100 mg/kg body weight. […]

[2] = Accelerated stability test for bulk drug; type: physicochemical; conditions: for Appearance / Content / Related substance: bulk drug, 40° C.±2° C., RH 75%±5%
Description: (§1) An accelerated stability test for bulk drug was carried out directly from the crystal powder. An accelerated stability test for formulation was carried out on tablets.

[3] = Accelerated stability test for formulation (tablets); type: physicochemical; conditions: conclusion from Tables 3 and 4
Description: as §1
Preparation process of formulation: form A of 2-tert-butyl-4-methoxyphenol (2-BHA) (form A of 2-BHA prepared in Example 4), microcrystalline cellulose, lactose and other auxiliary materials respectively were screened through 100 mesh, respectively for use. The prescription amount of form A of 2-tert-butyl-4-methoxyphenol, microcrystalline cellulose, lactose and other auxiliary materials were fully mixed according to the equal volume addition method. The above mixture was added to an aqueous solution of 2-3% polyvinylpyrrolidone under stirring, to obtain a soft material, which was screened through a 20-mesh sieve. The tablet weight regulator was adjusted to make the tablet weight being 250±10 mg, the hardness being 60-80 N, and then the tablet was compressed. After screening for dissolution, homogeneity and reproducibility and the like, the prescription was determined and 3 batches of samples were prepared.

[4] = Plasma concentration after intragastric administration in mice; type: in vivo
[5] = system: differentiation of monocytes into M2 macrophages; conditions: by inhibiting production of ROS; Cell Research 2013, 23:898-914; cited from earlier work
[6] = system: lung cancer in K-ras^LA2 model mice; conditions: Cell Research 2013, 23:898-914; cited from earlier work
[7] = Drug metabolism experiments (in vivo half-life)
Description: (§2) At the same time, it was found through drug metabolism experiments that the in vivo half-life of BHA was very short, only 30-60 minutes. […] Therefore, combining with the research results of literature on the metabolites of 2-tert-butyl-4-methoxyphenol (with DNA damaging effects, Food and Chemical Toxicology 1999, 37: 1027-1038), it can be inferred that 2-tert-butyl-4-methoxyphenol itself has an anti-tumor effect, and the interaction of its metabolite tert-butylhydroquinone (TBHQ) with DNA may be the cause of its side effects. BHA has the potential to be developed into a drug.

mice = test: Toxicology experiments in mice; type: in vivo
Description: as §2

[8] = Comparative study of antioxidant activity, 2-BHA vs 3-BHA; conditions: ratio to 3-BHA
Text: (§3) However, the existing commercial BHA products are all mixtures of 2-tert-butyl-4-methoxyphenol (2-BHA) and 3-tert-butyl-4-methoxyphenol (3-BHA), with a content ratio of approximately 9:1-50:1. The inventors comparatively studied the antioxidant activities and macrophage polarization regulation activities of 2-tert-butyl-4-methoxyphenol and 3-tert-butyl-4-methoxyphenol. […] Therefore, the development of 2-tert-butyl-4-methoxyphenol as a medicine still needs to improve the purity.

macrophage polarization = test: Comparative study of macrophage polarization regulation activity, 2-BHA vs 3-BHA; type: cell-based; conditions: ratio to 3-BHA
Text: as §3

[9] = system: M2 polarization of macrophages; conditions: CN 201610037849.5; cited from earlier work
[10] = system: lung cancer and breast cancer; conditions: mouse models with lung cancer and breast cancer; CN 201610037849.5; cited from earlier work
[11] = early studies, literature; cited from earlier work
[12] = 600 mg/kg administration in mice
[13] = 1100 mg/kg administration in mice

## COc1ccc(O)c(C(C)(C)C)c1 [2-BHA of form A, 2-tert-butyl-4-methoxyphenol]
[1]; 5 min after administration, female rats
  plasma concentration: 80.026 ng/mL and 165.939 ng/mL and 77.996 ng/mL
[1]; 5 min after administration, male rats
  plasma concentration: 159.617 ng/mL and 125.112 ng/mL and 147.531 ng/mL
[1]; 30 min, female rats
  plasma concentration: 157.878 ng/mL and 371.466 ng/mL and 240.870 ng/mL
[1]; 30 min, male rats
  plasma concentration: 694.651 ng/mL and 489.006 ng/mL and 359.028 ng/mL
[1]; 1 h, female rats
  plasma concentration: 504.084 ng/mL and 603.120 ng/mL and 643.208 ng/mL
[1]; 1 h, male rats
  plasma concentration: 560.980 ng/mL and 570.039 ng/mL
[1]; 2 h, female rats
  plasma concentration: 687.296 ng/mL and 410.399 ng/mL and 199.206 ng/mL
[1]; 2 h, male rats
  plasma concentration: 267.167 ng/mL and 267.234 ng/mL and 312.997 ng/mL
[1]; 4 h, female rats
  plasma concentration: 283.840 ng/mL and 205.532 ng/mL and 146.191 ng/mL
[1]; 4 h, male rats
  plasma concentration: 192.535 ng/mL and 63.401 ng/mL and 86.609 ng/mL
[1]; 8 h, female rats
  plasma concentration: 78.447 ng/mL and 42.984 ng/mL and 121.700 ng/mL
[1]; 8 h, male rats
  plasma concentration: 117.919 ng/mL and 27.328 ng/mL and 192.532 ng/mL
[1]; 24 h, BLLOQ = below the detection limit, female rats
  plasma concentration: BLLOQ
[1]; 24 h, BLLOQ = below the detection limit, male rats
  plasma concentration: BLLOQ
[1]; both sexes, SD, rat, plasma, oral, 100 mg/kg, 1 h
  concentration at 1 h: 881 ng/mL
[2]; 0 month, listed as 20160808
  Appearance: white
  Content: 99.5%
  Related substance: 0.34%
[2]; 0 month, listed as 20160904
  Appearance: white
  Content: 99.8%
  Related substance: 0.14%
[2]; 0 month, listed as 20160908
  Appearance: white
  Content: 99.6%
  Related substance: 0.34%
[2]; 1 month, listed as 20160808
  Appearance: white
  Content: 99.7%
  Related substance: 0.22%
[2]; 1 month, listed as 20160904
  Appearance: white
  Content: 99.7%
  Related substance: 0.21%
[2]; 1 month, listed as 20160908
  Appearance: white
  Content: 99.6%
  Related substance: 0.31%
[2]; 2 month, listed as 20160808
  Appearance: white
  Content: 99.4%
  Related substance: 0.19%
[2]; 2 month, listed as 20160904
  Appearance: white
  Content: 99.3%
  Related substance: 0.39%
[2]; 2 month, listed as 20160908
  Appearance: white
  Content: 99.5%
  Related substance: 0.29%
[2]; 3 month, listed as 20160808
  Appearance: white
  Content: 99.5%
  Related substance: 0.35%
[2]; 3 month, listed as 20160904
  Appearance: white
  Content: 99.3%
  Related substance: 0.35%
[2]; 3 month, listed as 20160908
  Appearance: white
  Content: 99.6%
  Related substance: 0.25%
[2]; fluidity, agglomeration, oxidation and colour change in the environment
  physical and chemical stability compared with commercially available BHA: better physical and chemical stability than commercially available BHA
[3]
  stability during the preparation process: better stability
[4]
  correlation of maximum plasma concentration and AUC with the administration dose: better correlation with the administration dose
  individual differences in plasma concentration: small individual differences in plasma concentration

## COc1ccc(O)c(C(C)(C)C)c1 [2-tert-butyl-4-methoxyphenol]
[2]; 0 month
  Appearance: off-white
  Content: 98.0%
  Related substance: 1.8%
[2]; 1 month
  Appearance: light yellowish
  Content: 95.1%
  Related substance: 3.9%
[2]; 2 month
  Appearance: light yellowish +
  Content: 92.1%
  Related substance: 8.8%
[2]; 3 month
  Appearance: light yellowish red
  Content: 90.2%
  Related substance: 9.3%

## COc1cc(C(C)=O)ccc1O [Apocynin]
[5]
  effect on differentiation of monocytes into M2 macrophages: inhibit the differentiation of monocytes into M2 macrophages
[6]
  effect on occurrence of lung cancer: inhibiting the occurrence of lung cancer

## COc1ccc(O)c(C(C)(C)C)c1 [BHA, 2-tert-butyl-4-methoxyphenol]
[7]
  half-life: 30 to 60 min
mice; [12]
  recovery from central effect: recovered after half an hour
  toxic effect seen: only part of the “hangover”-like central effect could be seen
mice; [13]
  lethality: half of the mice were lethal
  time until toxic reaction symptoms disappeared in the surviving mice: 30 to 60 min
mice; long-term low-dose administrations in mice for 2 years
  toxic effect after long-term administration: no toxic effect
[8]
  antioxidant capacity relative to 3-tert-butyl-4-methoxyphenol: 2-3 times
Macrophage polarization
  macrophage polarization regulation activity relative to 3-tert-butyl-4-methoxyphenol: 5-100 times
[9]
  effect on M2 polarization of macrophages: inhibiting the M2 polarization of macrophages
[10]
  anti-tumor effect: anti-tumor proliferation and metastasis effects
[5]
  effect on differentiation of monocytes into M2 macrophages: inhibit the differentiation of monocytes into M2 macrophages
[6]
  effect on occurrence of lung cancer: inhibiting the occurrence of lung cancer
[11]
  carcinogenic effects: has carcinogenic effects

## CC(=O)N[C@@H](CS)C(=O)O [NAC]
[5]
  effect on differentiation of monocytes into M2 macrophages: inhibit the differentiation of monocytes into M2 macrophages
[6]
  effect on occurrence of lung cancer: inhibiting the occurrence of lung cancer

## CC1(C)CCCC(C)(C)N1[O] [TEMPO]
[5]
  effect on differentiation of monocytes into M2 macrophages: inhibit the differentiation of monocytes into M2 macrophages
[6]
  effect on occurrence of lung cancer: inhibiting the occurrence of lung cancer
